How the values were obtained:
ACHN = assay: Cytotoxicity against human ACHN cells at 10 uM after 48 hrs by SRB assay; type: functional; details: read-out: GI
U-251 = assay: Cytotoxicity against human U251 cells at 10 uM after 48 hrs by SRB assay; type: functional; details: U-251, 48 h, read-out: GI
SK-MEL-2 = assay: Cytotoxicity against human SK-MEL-2 cells at 10 uM after 48 hrs by SRB assay; type: functional; details: SK-MEL-2, 48 h, read-out: GI
786-0 = assay: Cytotoxicity against human 786-0 cells at 10 uM after 48 hrs by SRB assay; type: functional; details: 786-0, 48 h, read-out: GI
HT-29 = assay: Cytotoxicity against human HT-29 cells at 10 uM after 48 hrs by SRB assay; type: functional; details: HT-29, 48 h, read-out: GI
SF-295 = assay: Cytotoxicity against human SF295 cells at 10 uM after 48 hrs by SRB assay; type: functional; details: SF-295, 48 h, read-out: GI
A549 = assay: Cytotoxicity against human A549 cells at 10 uM after 48 hrs by SRB assay; type: functional; details: A549, 48 h, read-out: GI
HCT-15 = assay: Cytotoxicity against human HCT15 cells at 10 uM after 48 hrs by SRB assay; type: functional; details: HCT-15, 48 h, read-out: GI
OVCAR-3 = assay: Cytotoxicity against human OVCAR3 cells at 10 uM after 48 hrs by SRB assay; type: functional; details: OVCAR-3, 48 h, read-out: GI
UO-31 = assay: Cytotoxicity against human UO31 cells at 10 uM after 48 hrs by SRB assay; type: functional; details: UO-31, 48 h, read-out: GI
Hs-578T = assay: Cytotoxicity against human Hs578T cells at 10 uM after 48 hrs by SRB assay; type: functional; details: read-out: GI
SNB-75 = assay: Cytotoxicity against human SNB75 cells at 10 uM after 48 hrs by SRB assay; type: functional; details: SNB-75, 48 h, read-out: GI
HOP-62 = assay: Cytotoxicity against human HOP62 cells at 10 uM after 48 hrs by SRB assay; type: functional; details: HOP-62, 48 h, read-out: GI
OVCAR-5 = assay: Cytotoxicity against human OVCAR5 cells at 10 uM after 48 hrs by SRB assay; type: functional; details: OVCAR-5, 48 h, read-out: GI
DU-145 = assay: Cytotoxicity against human DU145 cells at 10 uM after 48 hrs by SRB assay; type: functional; details: DU-145, 48 h, read-out: GI
SK-MEL-28 = assay: Cytotoxicity against human SK-MEL-28 cells at 10 uM after 48 hrs by SRB assay; type: functional; details: SK-MEL-28, 48 h, read-out: GI
NCI-H322M = assay: Cytotoxicity against human NCI-H322M cells at 10 uM after 48 hrs by SRB assay; type: functional; details: read-out: GI
[1] = n-Octanol-phosphate buffer partition coefficient, log P of the compound at pH 7.4 by shake flask method; type: physicochemical
COLO 205 = assay: Cytotoxicity against human COLO205 cells at 10 uM after 48 hrs by SRB assay; type: functional; details: COLO 205, 48 h, read-out: GI
[2] = Cytotoxicity against human EKVX cells at 10 uM after 48 hrs by SRB assay; type: functional; details: read-out: GI
HL-60(TB) = assay: Cytotoxicity against human HL-60(TB) cells at 10 uM after 48 hrs by SRB assay; type: functional; details: HL-60, 48 h, read-out: GI
SN12C = assay: Cytotoxicity against human SN12C cells at 10 uM after 48 hrs by SRB assay; type: functional; details: read-out: GI
KM12 = assay: Cytotoxicity against human KM12 cells at 10 uM after 48 hrs by SRB assay; type: functional; details: KM12, 48 h, read-out: GI
CAKI-1 = assay: Cytotoxicity against human Caki1 cells at 10 uM after 48 hrs by SRB assay; type: functional; details: CAKI-1, 48 h, read-out: GI
UACC-257 = assay: Cytotoxicity against human UACC257 cells at 10 uM after 48 hrs by SRB assay; type: functional; details: UACC-257, 48 h, read-out: GI
SF-268 = assay: Cytotoxicity against human SF268 cells at 10 uM after 48 hrs by SRB assay; type: functional; details: SF-268, 48 h, read-out: GI
NCI-H23 = assay: Cytotoxicity against human NCI-H23 cells at 10 uM after 48 hrs by SRB assay; type: functional; details: NCI-H23, 48 h, read-out: GI
HCT-116 = assay: Cytotoxicity against human HCT116 cells at 10 uM after 48 hrs by SRB assay; type: functional; details: HCT-116, 48 h, read-out: GI
RPMI-8226 = assay: Cytotoxicity against human RPMI8226 cells at 10 uM after 48 hrs by SRB assay; type: functional; details: RPMI-8226, 48 h, read-out: GI
SF-539 = assay: Cytotoxicity against human SF539 cells at 10 uM after 48 hrs by SRB assay; type: functional; details: SF-539, 48 h, read-out: GI
SR = assay: Cytotoxicity against human SR cells at 10 uM after 48 hrs by SRB assay; type: functional; details: read-out: GI
NCI-H226 = assay: Cytotoxicity against human NCI-H226 cells at 10 uM after 48 hrs by SRB assay; type: functional; details: NCI-H226, 48 h, read-out: GI
MDA-MB-468 = assay: Cytotoxicity against human MDA-MB-468 cells at 10 uM after 48 hrs by SRB assay; type: functional; details: MDA-MB-468, 48 h, read-out: GI
NCI/ADR-RES = assay: Cytotoxicity against human NCI/ADR-RES cells at 10 uM after 48 hrs by SRB assay; type: functional; details: read-out: GI
SK-OV-3 = assay: Cytotoxicity against human SKOV3 cells at 10 uM after 48 hrs by SRB assay; type: functional; details: SK-OV-3, 48 h, read-out: GI
SNB-19 = assay: Cytotoxicity against human SNB19 cells at 10 uM after 48 hrs by SRB assay; type: functional; details: SNB-19, 48 h, read-out: GI
PC-3 = assay: Cytotoxicity against human PC3 cells at 10 uM after 48 hrs by SRB assay; type: functional; details: PC-3, 48 h, read-out: GI
M14 = assay: Cytotoxicity against human M14 cells at 10 uM after 48 hrs by SRB assay; type: functional; details: M14, 48 h, read-out: GI
MCF7 = assay: Cytotoxicity against human MCF7 cells at 10 uM after 48 hrs by SRB assay; type: functional; details: MCF7, 48 h, read-out: GI
K562 = assay: Cytotoxicity against human K562 cells at 10 uM after 48 hrs by SRB assay; type: functional; details: K562, 48 h, read-out: GI
MDA-MB-231 = assay: Cytotoxicity against human MDA-MB-231 cells at 10 uM after 48 hrs by SRB assay; type: functional; details: MDA-MB-231, 48 h, read-out: GI
SW-620 = assay: Cytotoxicity against human SW620 cells at 10 uM after 48 hrs by SRB assay; type: functional; details: SW-620, 48 h, read-out: GI
LOX IMVI = assay: Cytotoxicity against human LOXIMVI cells at 10 uM after 48 hrs by SRB assay; type: functional; details: read-out: GI

C=CCn1c(C)nc2cc(Nc3nc(N4CCOCC4)nc4ccccc34)ccc21
2.49: logD [1]
< 10%: inhibition of growth at 10 µM (ACHN) | inhibition of growth at 10 µM (U-251) | inhibition of growth at 10 µM (SK-MEL-2) | inhibition of growth at 10 µM (786-0) | inhibition of growth at 10 µM (HT-29) | inhibition of growth at 10 µM (SF-295) | inhibition of growth at 10 µM (A549) | inhibition of growth at 10 µM (HCT-15) | inhibition of growth at 10 µM (OVCAR-3) | inhibition of growth at 10 µM (UO-31) | inhibition of growth at 10 µM (Hs-578T) | inhibition of growth at 10 µM (SNB-75) | inhibition of growth at 10 µM (HOP-62) | inhibition of growth at 10 µM (OVCAR-5) | inhibition of growth at 10 µM (DU-145) | inhibition of growth at 10 µM (SK-MEL-28) | inhibition of growth at 10 µM (NCI-H322M) | inhibition of growth at 10 µM (COLO 205) | inhibition of growth at 10 µM [2] | inhibition of growth at 10 µM (SN12C) | inhibition of growth at 10 µM (KM12) | inhibition of growth at 10 µM (CAKI-1) | inhibition of growth at 10 µM (UACC-257) | inhibition of growth at 10 µM (SF-268) | inhibition of growth at 10 µM (NCI-H23) | inhibition of growth at 10 µM (HCT-116) | inhibition of growth at 10 µM (SF-539) | inhibition of growth at 10 µM (SR) | inhibition of growth at 10 µM (NCI-H226) | inhibition of growth at 10 µM (MDA-MB-468) | inhibition of growth at 10 µM (NCI/ADR-RES) | inhibition of growth at 10 µM (SK-OV-3) | inhibition of growth at 10 µM (SNB-19) | inhibition of growth at 10 µM (M14) | inhibition of growth at 10 µM (MCF7) | inhibition of growth at 10 µM (K562) | inhibition of growth at 10 µM (MDA-MB-231) | inhibition of growth at 10 µM (SW-620) | inhibition of growth at 10 µM (LOX IMVI)
13.4%: inhibition of growth at 10 µM (RPMI-8226)
11.9%: inhibition of growth at 10 µM (PC-3)
13.5%: inhibition of growth at 10 µM (HL-60(TB))

C=CCn1c(C)nc2ccc(Nc3nc(Cl)nc4ccccc34)cc21
18%: inhibition of growth at 10 µM (PC-3)
12.8%: inhibition of growth at 10 µM (CAKI-1)
16.3%: inhibition of growth at 10 µM (MDA-MB-468)
15.9%: inhibition of growth at 10 µM (HL-60(TB))
10.1%: inhibition of growth at 10 µM (SF-268) | inhibition of growth at 10 µM (MDA-MB-231)
18.5%: inhibition of growth at 10 µM (A549)
25.2%: inhibition of growth at 10 µM (K562)
< 10%: inhibition of growth at 10 µM (ACHN) | inhibition of growth at 10 µM (U-251) | inhibition of growth at 10 µM (SK-MEL-2) | inhibition of growth at 10 µM (HT-29) | inhibition of growth at 10 µM (HCT-15) | inhibition of growth at 10 µM (OVCAR-3) | inhibition of growth at 10 µM (UO-31) | inhibition of growth at 10 µM (Hs-578T) | inhibition of growth at 10 µM (SNB-75) | inhibition of growth at 10 µM (HOP-62) | inhibition of growth at 10 µM (OVCAR-5) | inhibition of growth at 10 µM (DU-145) | inhibition of growth at 10 µM (SK-MEL-28) | inhibition of growth at 10 µM (NCI-H322M) | inhibition of growth at 10 µM (COLO 205) | inhibition of growth at 10 µM [2] | inhibition of growth at 10 µM (SN12C) | inhibition of growth at 10 µM (KM12) | inhibition of growth at 10 µM (UACC-257) | inhibition of growth at 10 µM (NCI-H23) | inhibition of growth at 10 µM (HCT-116) | inhibition of growth at 10 µM (SF-539) | inhibition of growth at 10 µM (SR) | inhibition of growth at 10 µM (NCI-H226) | inhibition of growth at 10 µM (NCI/ADR-RES) | inhibition of growth at 10 µM (SK-OV-3) | inhibition of growth at 10 µM (SNB-19) | inhibition of growth at 10 µM (M14) | inhibition of growth at 10 µM (MCF7) | inhibition of growth at 10 µM (SW-620) | inhibition of growth at 10 µM (LOX IMVI)
12.2%: inhibition of growth at 10 µM (786-0)
2.1: logD [1]
24.7%: inhibition of growth at 10 µM (RPMI-8226)
15.2%: inhibition of growth at 10 µM (SF-295)

From ChEMBL document CHEMBL2380212, “Synthesis, single crystal and antitumor activities of benzimidazole-quinazoline hybrids” (Bioorg Med Chem Lett, 2013)
